Target: PARG (Homo sapiens, UniProt Q86W56)
Assay: Biochemical assay (PARG, TFMU-ADPr substrate)
[1] = 4 nM PARG, 66.2 uM TFMU-ADPr, 3 min at room temperature

Sequence of PARG (Q86W56 whole entry): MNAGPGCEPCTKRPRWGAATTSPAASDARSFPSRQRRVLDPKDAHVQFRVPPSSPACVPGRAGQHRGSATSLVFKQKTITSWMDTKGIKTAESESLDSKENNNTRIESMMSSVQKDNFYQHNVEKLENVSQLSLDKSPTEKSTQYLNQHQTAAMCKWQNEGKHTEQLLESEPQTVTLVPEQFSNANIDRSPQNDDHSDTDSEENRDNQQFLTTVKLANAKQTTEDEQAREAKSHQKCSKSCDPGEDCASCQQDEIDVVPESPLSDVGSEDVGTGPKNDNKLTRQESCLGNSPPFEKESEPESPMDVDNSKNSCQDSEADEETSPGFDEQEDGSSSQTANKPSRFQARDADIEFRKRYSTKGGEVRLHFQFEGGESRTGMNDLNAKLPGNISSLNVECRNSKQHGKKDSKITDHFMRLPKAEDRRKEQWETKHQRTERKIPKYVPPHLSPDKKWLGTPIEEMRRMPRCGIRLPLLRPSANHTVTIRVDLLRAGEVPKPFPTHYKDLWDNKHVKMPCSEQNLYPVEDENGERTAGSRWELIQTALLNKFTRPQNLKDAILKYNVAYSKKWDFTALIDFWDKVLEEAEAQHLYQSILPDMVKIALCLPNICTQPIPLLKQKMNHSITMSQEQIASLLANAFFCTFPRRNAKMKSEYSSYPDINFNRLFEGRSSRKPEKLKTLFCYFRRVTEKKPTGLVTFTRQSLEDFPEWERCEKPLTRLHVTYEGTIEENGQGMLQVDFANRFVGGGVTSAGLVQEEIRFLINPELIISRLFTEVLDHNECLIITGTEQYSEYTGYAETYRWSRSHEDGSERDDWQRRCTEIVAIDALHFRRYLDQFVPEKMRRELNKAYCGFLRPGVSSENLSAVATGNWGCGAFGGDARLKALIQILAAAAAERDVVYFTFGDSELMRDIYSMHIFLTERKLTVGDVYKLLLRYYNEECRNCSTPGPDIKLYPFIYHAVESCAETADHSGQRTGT

SMILES | IC50 [1] [nM] | IC50 (PARG, TFMU-ADPr substrate) [nM]
N#CC1(NS(=O)(=O)c2cc(N3CCC(CO)(C(F)(F)F)CC3)c3cnc(-c4nnc(C(F)F)s4)n3c2)CC1 [Example 145, N-(1-cyanocyclopropyl)-3-(5-(difluoromethyl)-1,3,4-thiadiazol-2-yl)-8-(4-(hydroxymethyl)-4-(trifluoromethyl)piperidin-1-yl)imidazo[1,5-a]pyridine-6-sulfonamide] | 100 to 500 | 316
C=CC(=O)N1CC=C(c2cnc3c(N4CCN(C(=O)C(C)C)CC4)cc(S(=O)(=O)NC4(C#N)CC4)cn23)CC1 [Example 21, 3-(1-acryloyl-1,2,3,6-tetrahydropyridin-4-yl)-N-(1-cyanocyclopropyl)-8-(4-isobutyrylpiperazin-1-yl)imidazo[1,2-a]pyridine-6-sulfonamide] | – | 912
CN1CCN(c2cc(S(=O)(=O)NC3(C#N)CC3)cn3c(-c4nnc(C(F)F)s4)ncc23)CC1 [Example 38, N-(1-cyanocyclopropyl)-3-(5-(difluoromethyl)-1,3,4-thiadiazol-2-yl)-8-(4-methylpiperazin-1-yl)imidazo[1,5-a]pyridine-6-sulfonamide] | < 100 | 16.4
Cc1ncc2n1CCN(c1cc(S(=O)(=O)NC3(C#N)CC3)cn3c(-c4nnc(C(F)F)s4)ncc13)C2 [Example 44, N-(1-cyanocyclopropyl)-3-(5-(difluoromethyl)-1,3,4-thiadiazol-2-yl)-8-(3-methyl-5,6-dihydroimidazo[1,5-a]pyrazin-7(8H)-yl)imidazo[1,5-a]pyridine-6-sulfonamide] | < 100 | 10.7
CC1(C(=O)N2CCN(c3cc(S(=O)(=O)NC4(C#N)CC4)cn4c(-c5nnc(C(F)F)s5)ncc34)CC2(C)C)CC1 [Example 95, N-(1-cyanocyclopropyl)-3-(5-(difluoromethyl)-1,3,4-thiadiazol-2-yl)-8-(3,3-dimethyl-4-(1-methylcyclopropane-1-carbonyl)piperazin-1-yl)imidazo[1,5-a]pyridine-6-sulfonamide] | < 100 | 100
C[C@@H]1CN(c2cc(S(=O)(=O)NC3(C#N)CC3)cn3c(-c4nnc(C(F)F)s4)ncc23)[C@@H](C)CN1C(=O)C1(C)CC1 [Example 93, N-(1-cyanocyclopropyl)-3-(5-(difluoromethyl)-1,3,4-thiadiazol-2-yl)-8-((2S,5R)-2,5-dimethyl-4-(1-methylcyclopropane-1-carbonyl)piperazin-1-yl)imidazo[1,5-a]pyridine-6-sulfonamide] | < 100 | 75.9
CN1CC(Nc2cc(S(=O)(=O)NC3(C#N)CC3)cn3c(-c4nnc(C(F)F)s4)ncc23)C1 [Example 150, N-(1-cyanocyclopropyl)-3-(5-(difluoromethyl)-1,3,4-thiadiazol-2-yl)-8-((1-methylazetidin-3-yl)amino)imidazo[1,5-a]pyridine-6-sulfonamide] | < 100 | 8.29
Cc1cnc(-c2cnc3c(N4CCN(C(=O)C(C)C)CC4)cc(S(=O)(=O)NC4(C#N)CC4)cn23)s1 [Example 3, N-(1-cyanocyclopropyl)-8-(4-isobutyrylpiperazin-1-yl)-3-(5-methylthiazol-2-yl)imidazo[1,2-a]pyridine-6-sulfonamide] | – | 33.1
C[C@H]1CN(c2cc(S(=O)(=O)NC3(C)COC3)cn3c(-c4nnc(C(F)(F)F)s4)nc(Cl)c23)C[C@H](C)O1 [Example 134, 1-chloro-8-((2S,6S)-2,6-dimethylmorpholino)-N-(3-methyloxetan-3-yl)-3-(5-(trifluoromethyl)-1,3,4-thiadiazol-2-yl)imidazo[1,5-a]pyridine-6-sulfonamide] | – | 69.2
C=CC(=O)N1CCC(c2cnc3c(N4CCN(C(=O)C(C)C)CC4)cc(S(=O)(=O)NC4(C#N)CC4)cn23)C1 (stereo not shown) [Example 19, 3-(1-acryloylpyrrolidin-3-yl)-N-(1-cyanocyclopropyl)-8-(4-isobutyrylpiperazin-1-yl)imidazo[1,2-a]pyridine-6-sulfonamide] | – | 7240
C[C@@H]1CN(c2cc(S(=O)(=O)NC3(C#N)CC3)cn3c(-c4nnc(C(F)F)s4)ncc23)CCN1C(=O)C1CNC1 [Example 288, (R)-8-(4-(azetidine-3-carbonyl)-3-methylpiperazin-1-yl)-N-(1-cyanocyclopropyl)-3-(5-(difluoromethyl)-1,3,4-thiadiazol-2-yl)imidazo[1,5-a]pyridine-6-sulfonamide] | – | 6.03
Cc1nnc(-c2cnc3c(N4CCN(C(=O)C(C)C)CC4)cc(S(=O)(=O)NC4(C#N)CC4)cn23)s1 [Example 2, N-(1-cyanocyclopropyl)-8-(4-isobutyrylpiperazin-1-yl)-3-(5-methyl-1,3,4-thiadiazol-2-yl)imidazo[1,2-a]pyridine-6-sulfonamide] | – | 2100
Cc1c(-c2cc(S(=O)(=O)NC3(C#N)CC3)cn3c(-c4nnc(C(F)F)s4)ncc23)cnn1C(C)C [Example 143, N-(1-cyanocyclopropyl)-3-(5-(difluoromethyl)-1,3,4-thiadiazol-2-yl)-8-(1-isopropyl-5-methyl-1H-pyrazol-4-yl)imidazo[1,5-a]pyridine-6-sulfonamide] | < 100 | 12

Now from value to compound:

IC50 [1] [nM] | IC50 (PARG, TFMU-ADPr substrate) [nM] | SMILES
< 100 | 50 | CC1(O)CCN(c2cc(S(=O)(=O)NC3(C)CC3)cn3c(-c4nnc(C(F)F)s4)nnc23)CC1 [Example 116, 3-(5-(difluoromethyl)-1,3,4-thiadiazol-2-yl)-8-(4-hydroxy-4-methylpiperidin-1-yl)-N-(1-methylcyclopropyl)-[1,2,4]triazolo[4,3-a]pyridine-6-sulfonamide]
< 100 | 33 | Cc1ncc(-c2cnn3c(N4CCN(C(=O)C(C)C)CC4)cc(S(=O)(=O)NC4(C#N)CC4)cc23)s1 [Example 28, N-(1-cyanocyclopropyl)-7-(4-isobutyrylpiperazin-1-yl)-3-(2-methylthiazol-5-yl)pyrazolo[1,5-a]pyridine-5-sulfonamide]
< 100 | 52.5 | N#CC1(NS(=O)(=O)c2cc(N3CC4COCC4C3)c3cnc(-c4nnc(C(F)F)s4)n3c2)CC1 (stereo not shown) [Example 79, N-(1-cyanocyclopropyl)-3-(5-(difluoromethyl)-1,3,4-thiadiazol-2-yl)-8-(tetrahydro-1H-furo[3,4-c]pyrrol-5(3H)-yl)imidazo[1,5-a]pyridine-6-sulfonamide]
< 100 | 5.91 | N#CC1(NS(=O)(=O)c2cc(N3CCC(OCC(F)(F)F)CC3)c3cnc(-c4nnc(C(F)F)s4)n3c2)CC1 [Example 47, N-(1-cyanocyclopropyl)-3-(5-(difluoromethyl)-1,3,4-thiadiazol-2-yl)-8-(4-(2,2,2-trifluoroethoxy)piperidin-1-yl)imidazo[1,5-a]pyridine-6-sulfonamide]
< 100 | 26.2 | N#CC1(NS(=O)(=O)c2cc(-c3ccc4c(c3)CCO4)c3cnc(-c4nnc(C(F)F)s4)n3c2)CC1 [Example 140, N-(1-cyanocyclopropyl)-3-(5-(difluoromethyl)-1,3,4-thiadiazol-2-yl)-8-(2,3-dihydrobenzofuran-5-yl)imidazo[1,5-a]pyridine-6-sulfonamide]
100 to 500 | 135 | COc1ccc(N(C)c2cc(S(=O)(=O)NC3(C#N)CC3)cn3c(-c4nnc(C(F)F)s4)ncc23)cc1 [Example 45, N-(1-cyanocyclopropyl)-3-(5-(difluoromethyl)-1,3,4-thiadiazol-2-yl)-8-((4-methoxyphenyl)(methyl)amino)imidazo[1,5-a]pyridine-6-sulfonamide]
< 100 | 29.7 | CC(C)C(=O)N1CCN(c2cc(S(=O)(=O)NC3COC3)cn3c(-c4nnc(C(F)F)s4)cnc23)CC1 [Example 16, 3-(5-(difluoromethyl)-1,3,4-thiadiazol-2-yl)-8-(4-isobutyrylpiperazin-1-yl)-N-(oxetan-3-yl)imidazo[1,2-a]pyridine-6-sulfonamide]
100 to 500 | 347 | CC(N1CCN(c2cc(S(=O)(=O)NC3(C#N)CC3)cn3c(-c4nnc(C(F)F)s4)ncc23)C[C@H]1C)C(F)(F)F (stereo partly drawn) [Example 83, N-(1-cyanocyclopropyl)-3-(5-(difluoromethyl)-1,3,4-thiadiazol-2-yl)-8-((3R)-3-methyl-4-(1,1,1-trifluoropropan-2-yl)piperazin-1-yl)imidazo[1,5-a]pyridine-6-sulfonamide]
100 to 500 | 115 | N#CC1(NS(=O)(=O)c2cc(N3CCC(O)(C(F)(F)F)CC3)c3cnc(-c4nnc(C(F)F)s4)n3c2)CC1 [Example 89, N-(1-cyanocyclopropyl)-3-(5-(difluoromethyl)-1,3,4-thiadiazol-2-yl)-8-(4-hydroxy-4-(trifluoromethyl)piperidin-1-yl)imidazo[1,5-a]pyridine-6-sulfonamide]
– | 13.2 | C[C@H]1CN(c2cc(S(=O)(=O)NC3(C)COC3)cn3c(-c4nnc(C(F)F)s4)nc(Cl)c23)C[C@H](CO)O1 [Example 133, 1-chloro-3-(5-(difluoromethyl)-1,3,4-thiadiazol-2-yl)-8-((2R,6S)-2-(hydroxymethyl)-6-methylmorpholino)-N-(3-methyloxetan-3-yl)imidazo[1,5-a]pyridine-6-sulfonamide]
< 100 | 13.2 | N#CC1(NS(=O)(=O)c2cc(N3CCC(OC(F)(F)F)CC3)c3cnc(-c4nnc(C(F)F)s4)n3c2)CC1 [Example 48, N-(1-cyanocyclopropyl)-3-(5-(difluoromethyl)-1,3,4-thiadiazol-2-yl)-8-(4-(trifluoromethoxy)piperidin-1-yl)imidazo[1,5-a]pyridine-6-sulfonamide]
– | 45.7 | N#CC1(NS(=O)(=O)c2cc(N3CCN(C(=O)C4CNCCN4)CC3)c3cnc(-c4nnc(C(F)(F)F)s4)n3c2)CC1 (stereo not shown) [Example 280, N-(1-cyanocyclopropyl)-8-(4-(piperazine-2-carbonyl)piperazin-1-yl)-3-(5-(trifluoromethyl)-1,3,4-thiadiazol-2-yl)imidazo[1,5-a]pyridine-6-sulfonamide]
> 1000 | – | CC(C)C(=O)N1CCN(c2cc(S(=O)(=O)N[C@H]3C[C@@H]3F)cn3c(-c4nnc(C(F)F)s4)ncc23)CC1 [Example 81, 3-(5-(difluoromethyl)-1,3,4-thiadiazol-2-yl)-N-((1S,2S)-2-fluorocyclopropyl)-8-(4-isobutyrylpiperazin-1-yl)imidazo[1,5-a]pyridine-6-sulfonamide]

Source: patent US20260258035A1, “FIVE-MEMBERED AND SIX-MEMBERED NITROGEN-CONTAINING COMPOUND, AND INTERMEDIATE, PREPARATION METHOD AND USE THEREOF” (HANGZHOU SYNRX THERAPEUTICS BIOMEDICAL TECHNOLOGY CO., LTD., priority 2022, published 2026)
